# Read-outs that look alike come from different tables or passages of the source.
# What was measured:
# [1] = assay type: physicochemical; settings: stored at room temperature (21-25° C.)
# Procedure: At each time period, 0.05 g of powder was dissolved in 10 ml-15 of ethanol, diluted to fall within the analytical range, and injected into the LCMSMS for analysis.
# [2] = Stability of cannabinoid and Vitamin E components of Beverage 2 (AB Red) stored at 8° C. and 21-25° C., LCMSMS over 570 days
# Procedure: The LCMSMS was calibrated for 0-50 ng/ml cannabinoids with the same resin material used in the preparation of the concentrates. At each time period, 100 μml of beverage was diluted with 10 ml of methanol and injected into the LCMSMS for analysis.
structure (smiles),measurement,setting,value
"CCCCCc1cc(O)c(C/C=C(\C)CCC=C(C)C)c(O)c1 [CBG, cannabigerol]",Stability in Powder Concentrate (content by LCMSMS),[1]; day 0,1.1 mg/g powder
same,Stability in Powder Concentrate (content by LCMSMS),[1]; day 1,1.07 mg/g powder
same,Stability in Powder Concentrate (content by LCMSMS),[1]; day 2,1.08 mg/g powder
same,Stability in Powder Concentrate (content by LCMSMS),[1]; day 3,1.09 mg/g powder
same,Stability in Powder Concentrate (content by LCMSMS),[1]; day 5,1.11 mg/g powder
same,Stability in Powder Concentrate (content by LCMSMS),[1]; day 8,1.07 mg/g powder
same,Stability in Powder Concentrate (content by LCMSMS),[1]; day 9,1.09 mg/g powder
same,Stability in Powder Concentrate (content by LCMSMS),[1]; day 10,1.08 mg/g powder
same,Stability in Powder Concentrate (content by LCMSMS),[1]; day 11,1.14 mg/g powder
same,Stability in Powder Concentrate (content by LCMSMS),[1]; day 12,1.10 mg/g powder
same,Stability in Powder Concentrate (content by LCMSMS),[1]; day 15,1.08 mg/g powder
same,Stability in Powder Concentrate (content by LCMSMS),[1]; day 16,1.06 mg/g powder
same,Stability in Powder Concentrate (content by LCMSMS),[1]; day 17,1.06 mg/g powder
same,Stability in Powder Concentrate (content by LCMSMS),[1]; day 18,1.13 mg/g powder
same,Stability in Powder Concentrate (content by LCMSMS),[1]; day 19,1.14 mg/g powder
same,Stability in Powder Concentrate (content by LCMSMS),[1]; day 22,1.12 mg/g powder
same,Stability in Powder Concentrate (content by LCMSMS),[1]; day 23,1.13 mg/g powder
same,Stability in Powder Concentrate (content by LCMSMS),[1]; day 24,1.09 mg/g powder
same,Stability in Powder Concentrate (content by LCMSMS),[1]; day 25,1.13 mg/g powder
same,Stability in Powder Concentrate (content by LCMSMS),[1]; day 26,1.14 mg/g powder
same,Stability in Powder Concentrate (content by LCMSMS),[1]; day 29,1.10 mg/g powder
same,Stability in Powder Concentrate (content by LCMSMS),[1]; day 30,1.07 mg/g powder
same,Stability in Powder Concentrate (content by LCMSMS),[1]; day 60,1.1 mg/g powder
same,Stability in Powder Concentrate (content by LCMSMS),[1]; day 90,1.13 mg/g powder
same,Stability in Powder Concentrate (content by LCMSMS),[1]; day 120,1.09 mg/g powder
same,Stability in Powder Concentrate (content by LCMSMS),[1]; day 150,1.11 mg/g powder
same,Stability in Powder Concentrate (content by LCMSMS),[1]; day 180,1.07 mg/g powder
same,Stability in Powder Concentrate (content by LCMSMS),[1]; day 210,1.06 mg/g powder
same,Stability in Powder Concentrate (content by LCMSMS),[1]; day 240,1.12 mg/g powder
same,Stability in Powder Concentrate (content by LCMSMS),[1]; day 270,1.15 mg/g powder
same,Stability in Powder Concentrate (content by LCMSMS),[1]; day 300,1.09 mg/g powder
same,Stability in Powder Concentrate (content by LCMSMS),[1]; day 330,1.10 mg/g powder
same,Stability in Powder Concentrate (content by LCMSMS),[1]; day 360,1.09 mg/g powder
same,Stability in Powder Concentrate (content by LCMSMS),[1]; day 390,1.14 mg/g powder
same,Stability in Powder Concentrate (content by LCMSMS),[1]; day 420,1.11 mg/g powder
same,Stability in Powder Concentrate (content by LCMSMS),[1]; day 450,1.06 mg/g powder
same,Stability in Powder Concentrate (content by LCMSMS),[1]; day 480,1.12 mg/g powder
same,Stability in Powder Concentrate (content by LCMSMS),[1]; day 510,1.07 mg/g powder
same,Stability in Powder Concentrate (content by LCMSMS),[1]; day 540,1.07 mg/g powder
same,Stability in Powder Concentrate (content by LCMSMS),[1]; day 570,1.06 mg/g powder
same,Stability of Cannabinoids in AB Red,"[2]; 8° C., 0 days",4.75 µg/mL
same,Stability of Cannabinoids in AB Red,"[2]; 8° C., 1 days",4.62 µg/mL
same,Stability of Cannabinoids in AB Red,"[2]; 8° C., 2 days",4.79 µg/mL
same,Stability of Cannabinoids in AB Red,"[2]; 8° C., 3 days",4.70 µg/mL
same,Stability of Cannabinoids in AB Red,"[2]; 8° C., 5 days",4.75 µg/mL
same,Stability of Cannabinoids in AB Red,"[2]; 8° C., 8 days",4.76 µg/mL
same,Stability of Cannabinoids in AB Red,"[2]; 8° C., 9 days",4.72 µg/mL
same,Stability of Cannabinoids in AB Red,"[2]; 8° C., 10 days",4.68 µg/mL
same,Stability of Cannabinoids in AB Red,"[2]; 8° C., 11 days",4.77 µg/mL
same,Stability of Cannabinoids in AB Red,"[2]; 8° C., 12 days",4.64 µg/mL
same,Stability of Cannabinoids in AB Red,"[2]; 8° C., 15 days",4.68 µg/mL
same,Stability of Cannabinoids in AB Red,"[2]; 8° C., 16 days",4.65 µg/mL
same,Stability of Cannabinoids in AB Red,"[2]; 8° C., 17 days",4.77 µg/mL
same,Stability of Cannabinoids in AB Red,"[2]; 8° C., 18 days",4.67 µg/mL
same,Stability of Cannabinoids in AB Red,"[2]; 8° C., 19 days",4.71 µg/mL
same,Stability of Cannabinoids in AB Red,"[2]; 8° C., 22 days",4.70 µg/mL
same,Stability of Cannabinoids in AB Red,"[2]; 8° C., 23 days",4.66 µg/mL
same,Stability of Cannabinoids in AB Red,"[2]; 8° C., 24 days",4.65 µg/mL
same,Stability of Cannabinoids in AB Red,"[2]; 8° C., 25 days",4.73 µg/mL
same,Stability of Cannabinoids in AB Red,"[2]; 8° C., 26 days",4.68 µg/mL
same,Stability of Cannabinoids in AB Red,"[2]; 8° C., 29 days",4.80 µg/mL
same,Stability of Cannabinoids in AB Red,"[2]; 8° C., 30 days",4.72 µg/mL
same,Stability of Cannabinoids in AB Red,"[2]; 8° C., 60 days",4.70 µg/mL
same,Stability of Cannabinoids in AB Red,"[2]; 8° C., 90 days",4.73 µg/mL
same,Stability of Cannabinoids in AB Red,"[2]; 8° C., 120 days",4.68 µg/mL
same,Stability of Cannabinoids in AB Red,"[2]; 8° C., 150 days",4.67 µg/mL
same,Stability of Cannabinoids in AB Red,"[2]; 8° C., 180 days",4.65 µg/mL
same,Stability of Cannabinoids in AB Red,"[2]; 8° C., 210 days",4.60 µg/mL
same,Stability of Cannabinoids in AB Red,"[2]; 8° C., 240 days",4.68 µg/mL
same,Stability of Cannabinoids in AB Red,"[2]; 8° C., 270 days",4.66 µg/mL
same,Stability of Cannabinoids in AB Red,"[2]; 8° C., 300 days",4.70 µg/mL
same,Stability of Cannabinoids in AB Red,"[2]; 8° C., 330 days",4.60 µg/mL
same,Stability of Cannabinoids in AB Red,"[2]; 8° C., 390 days",4.55 µg/mL
same,Stability of Cannabinoids in AB Red,"[2]; 8° C., 420 days",4.58 µg/mL
same,Stability of Cannabinoids in AB Red,"[2]; 8° C., 450 days",4.54 µg/mL
same,Stability of Cannabinoids in AB Red,"[2]; 8° C., 480 days",4.51 µg/mL
same,Stability of Cannabinoids in AB Red,"[2]; 8° C., 510 days",4.40 µg/mL
same,Stability of Cannabinoids in AB Red,"[2]; 8° C., 540 days",4.42 µg/mL
same,Stability of Cannabinoids in AB Red,"[2]; 8° C., 570 days",4.37 µg/mL
same,Stability of Cannabinoids in AB Red,"[2]; 21-25° C., 0 days",4.75 µg/mL
same,Stability of Cannabinoids in AB Red,"[2]; 21-25° C., 1 days",4.57 µg/mL
same,Stability of Cannabinoids in AB Red,"[2]; 21-25° C., 2 days",4.61 µg/mL
same,Stability of Cannabinoids in AB Red,"[2]; 21-25° C., 3 days",4.71 µg/mL
same,Stability of Cannabinoids in AB Red,"[2]; 21-25° C., 5 days",4.66 µg/mL
same,Stability of Cannabinoids in AB Red,"[2]; 21-25° C., 8 days",4.66 µg/mL
same,Stability of Cannabinoids in AB Red,"[2]; 21-25° C., 9 days",4.74 µg/mL
same,Stability of Cannabinoids in AB Red,"[2]; 21-25° C., 10 days",4.59 µg/mL
same,Stability of Cannabinoids in AB Red,"[2]; 21-25° C., 11 days",4.72 µg/mL
same,Stability of Cannabinoids in AB Red,"[2]; 21-25° C., 12 days",4.62 µg/mL
same,Stability of Cannabinoids in AB Red,"[2]; 21-25° C., 15 days",4.80 µg/mL
same,Stability of Cannabinoids in AB Red,"[2]; 21-25° C., 16 days",4.75 µg/mL
same,Stability of Cannabinoids in AB Red,"[2]; 21-25° C., 17 days",4.63 µg/mL
same,Stability of Cannabinoids in AB Red,"[2]; 21-25° C., 18 days",4.70 µg/mL
same,Stability of Cannabinoids in AB Red,"[2]; 21-25° C., 19 days",4.66 µg/mL
same,Stability of Cannabinoids in AB Red,"[2]; 21-25° C., 22 days",4.71 µg/mL
same,Stability of Cannabinoids in AB Red,"[2]; 21-25° C., 23 days",4.67 µg/mL
same,Stability of Cannabinoids in AB Red,"[2]; 21-25° C., 24 days",4.78 µg/mL
same,Stability of Cannabinoids in AB Red,"[2]; 21-25° C., 25 days",4.56 µg/mL
same,Stability of Cannabinoids in AB Red,"[2]; 21-25° C., 26 days",4.77 µg/mL
same,Stability of Cannabinoids in AB Red,"[2]; 21-25° C., 29 days",4.78 µg/mL
same,Stability of Cannabinoids in AB Red,"[2]; 21-25° C., 30 days",4.73 µg/mL
same,Stability of Cannabinoids in AB Red,"[2]; 21-25° C., 60 days",4.61 µg/mL
same,Stability of Cannabinoids in AB Red,"[2]; 21-25° C., 90 days",4.55 µg/mL
same,Stability of Cannabinoids in AB Red,"[2]; 21-25° C., 120 days",4.61 µg/mL
same,Stability of Cannabinoids in AB Red,"[2]; 21-25° C., 150 days",4.65 µg/mL
same,Stability of Cannabinoids in AB Red,"[2]; 21-25° C., 180 days",4.53 µg/mL
same,Stability of Cannabinoids in AB Red,"[2]; 21-25° C., 210 days",4.63 µg/mL
same,Stability of Cannabinoids in AB Red,"[2]; 21-25° C., 240 days",4.56 µg/mL
same,Stability of Cannabinoids in AB Red,"[2]; 21-25° C., 270 days",4.68 µg/mL
same,Stability of Cannabinoids in AB Red,"[2]; 21-25° C., 300 days",4.47 µg/mL
same,Stability of Cannabinoids in AB Red,"[2]; 21-25° C., 330 days",4.57 µg/mL
same,Stability of Cannabinoids in AB Red,"[2]; 21-25° C., 390 days",4.57 µg/mL
same,Stability of Cannabinoids in AB Red,"[2]; 21-25° C., 420 days",4.51 µg/mL
same,Stability of Cannabinoids in AB Red,"[2]; 21-25° C., 450 days",4.63 µg/mL
same,Stability of Cannabinoids in AB Red,"[2]; 21-25° C., 480 days",4.44 µg/mL
same,Stability of Cannabinoids in AB Red,"[2]; 21-25° C., 510 days",4.37 µg/mL
same,Stability of Cannabinoids in AB Red,"[2]; 21-25° C., 540 days",4.49 µg/mL
same,Stability of Cannabinoids in AB Red,"[2]; 21-25° C., 570 days",4.36 µg/mL
